Our source for the Ki and melting point values is US8497260B2, “2-arylbenzothiophene derivatives or pharmaceutically acceptable salts thereof, preparation method thereof, and pharmaceutical composition for the diagnosis or treatment of degenerative brain disease containing the same as active ingredient” (Industry-University Cooperation Foundation Sogang University, priority 2009, dated 2013).

In one series the target is T1, β-amyloid (Aβ1-42) fibrils (Homo sapiens, UniProt P05067).
T1 construct: β-Amyloid peptide (Aβ1-42, 1 mg, Bachem); purchased Bachem
T1 sequence (P05067 672-713 limits assumed): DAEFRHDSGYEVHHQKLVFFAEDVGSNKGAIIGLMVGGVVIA
The series is described as follows: Inhibitory binding assay against [125I]TZDM on β-amyloid (Aβ1-42) fibrils. The conditions noted are these: Aβ1-42 fibrils 10 nM, [125I]TZDM 0.05 nM, 10% ethanol, room temperature 3 hours, nonspecific binding with 2 μM ThT; read-out: Ki, relative binding affinity to [125I]TZDM (112). How it is done: β-Amyloid peptide (Aβ1-42, 1 mg, Bachem) was completely dissolved in 1 mL of DMSO, 9 mL of phosphate buffered saline (PBS) (pH 7.4) was added thereto and well mixed. The resulting mixture was incubated at 37° C. for 60 minutes to form β-amyloid fibrils, 0.5 mL was taken and transferred to each e-tube and placed into a refrigerator maintained at −80° C.
To determine whether β-amyloid peptide was properly formed into β-amyloid fibrils, 150 μL of 5 μM Thioflavin T (ThT) was added to 50 μL of incubated β-amyloid fibrils, the fluorescence intensity of ThT binding specifically to β-amyloid fibrils at excitation/emission wavelengths (λex/λem), e.g., 450 nm/480 nm, was detected using a spectrometer.
0.850 mL of 10% Ethanol was placed into 12 mm×75 mm borosilicate test tubes, and 50 μL of β-amyloid (Aβ1-42) fibrils were added such that the final reaction concentration became 10 nM. […] Here, the nonspecific binding was performed using 2 μM Thioflavin T (ThT).
What is called Ki is the dissociation constant of the complex between target and ligand, obtained from inhibition or displacement. Regarding `CNc1ccc(-c2cc3ccc(OC)cc3s2)cc1` [Example 11, 2-[4-(N-monomethylamino)phenyl]-6-methoxybenzothiophene], the Ki amounted to 430 pM. On to `COc1ccc2cc(-c3ccnc(OCCF)n3)sc2c1` [Example 31, 2-[2-(2-fluoroethoxy)pyrimidine-4-yl]-6-methoxybenzothiophene], for which the Ki is 610 pM.

For the molecule `Nc1ccc(-c2cc3ccc(OCCF)cc3s2)cc1` [Example 9, 2-(4-aminophenyl)-6-(2-fluoroethoxy)benzothiophene], the Ki came out at 380 pM.

In the case of `CNc1ccc(-c2cc3ccc(OCCF)cc3s2)nn1` [Example 48, 2-[3-(N-monomethylamino)pyridazine-6-yl]-6-(2-fluoroethoxy)benzothiophene], the Ki worked out at 300 pM. The same measure, in the same setting: in the case of `O=[N+]([O-])c1ccc(-c2cc3ccc(O)cc3s2)cc1` [Example 4, 2-(4-nitrophenyl)-6-hydroxybenzothiophene] it was 1070 pM. For `CN(C)c1ccc(-c2cc3ccc(OCCCF)cc3s2)cc1` [Example 17, 2-[4-(N,N-dimethylamino)phenyl]-6-(3-fluoropropoxy)benzothiophene], the Ki turned out to be 7410 pM. On the same count and under the same terms, under `COc1ccc2cc(-c3cncc(OCCCF)n3)sc2c1` [Example 55, 2-[2-(3-fluoropropoxy)pyrazine-6-yl]-6-methoxybenzothiophene] stands 450 pM; under `COc1ccc2cc(-c3ccc(OCCF)nn3)sc2c1` [Example 44, 2-[3-(2-fluoroethoxy)pyridazine-6-yl]-6-methoxybenzothiophene], 65 pM; under `CNc1ccnc(-c2cc3ccc(OCCF)cc3s2)n1` [Example 41, 2-[4-(N-monomethylamino)pyrimidine-2-yl]-6-(2-fluoroethoxy)benzothiophene], 530 pM. As for `CNc1ccc(-c2cc3ccc(OCCF)cc3s2)cn1` [Example 22, 2-[2-(N-monomethylamino)pyridine-5-yl]-6-(2-fluoroethoxy)benzothiophene], the Ki came out at 460 pM. On to `Nc1ccc(-c2cc3ccc(OCCCF)cc3s2)cn1` [Example 24, 2-(2-aminopyridine-5-yl)-6-(3-fluoropropoxy)benzothiophene], for which the Ki was found to be 1180 pM.

Take `COc1ccc2cc(-c3ccnc(NCCF)n3)sc2c1` [Example 33, 2-[2-(N-(2-fluoroethyl)amino)pyrimidine-4-yl]-6-methoxybenzothiophene]: the Ki turned out to be 530 pM. For the molecule `COc1ccc2cc(-c3ccc(OCCF)nc3)sc2c1` [Example 18, 2-[2-(2-fluoroethoxy)pyridine-5-yl]-6-methoxybenzothiophene], the Ki is 90 pM. On to `COc1ccc2cc(-c3ccc([N+](=O)[O-])cc3)sc2c1` [Example 3, 2-(4-nitrophenyl)-6-methoxybenzothiophene], for which the Ki is 2300 pM. With `Nc1ccc(-c2cc3ccc(OCCF)cc3s2)nn1` [Example 47, 2-(3-aminopyridazine-6-yl)-6-(2-fluoroethoxy)benzothiophene], the inhibition constant Ki is 440 pM. As to `CNc1nccc(-c2cc3ccc(OCCF)cc3s2)n1` [Example 35, 2-[2-(N-monomethylamino)pyrimidine-4-yl]-6-(2-fluoroethoxy)benzothiophene], the inhibitory constant (Ki) worked out at 550 pM. In the case of `CN(C)c1ccc(-c2cc3ccc(OCCCF)cc3s2)cn1` [Example 26, 2-[2-(N,N-dimethylamino)pyridine-5-yl]-6-(3-fluoropropoxy)benzothiophene], the Ki came out at 90 pM. For the molecule `CNc1ccc(-c2cc3ccc(OCCF)cc3s2)cc1` [Example 12, 2-[4-(N-monomethylamino)phenyl]-6-(2-fluoroethoxy)benzothiophene], the Ki was 64 pM. Consider `CNc1ccnc(-c2cc3ccc(OCCCF)cc3s2)n1` [Example 43, 2-[4-(N-monomethylamino)pyrimidine-2-yl]-6-(3-fluoropropoxy)benzothiophene], for which the Ki turned out to be 370 pM. For the molecule `CN(C)c1ccc(-c2cc3ccc(OCCF)cc3s2)cn1` [Example 23, 2-[2-(N,N-dimethylamino)pyridine-5-yl]-6-(2-fluoroethoxy)benzothiophene], the Ki was 720 pM.

In the case of `COc1ccc2cc(-c3ccc(OCCCF)nc3)sc2c1` [Example 19, 2-[2-(3-fluoropropoxy)pyridine-5-yl]-6-methoxybenzothiophene], the Ki was found to be 390 pM. Take `COc1cccc2sc(-c3ccc([N+](=O)[O-])cc3)cc12` [Example 1, 2-(4-nitrophenyl)-4-methoxybenzothiophene]: the Ki is 730 pM. The same measure, in the same setting: under `CNc1ccc(-c2cc3ccc(OCCCF)cc3s2)cn1` [Example 25, 2-[2-(N-monomethylamino)pyridine-5-yl]-6-(3-fluoropropoxy)benzothiophene] stands 60 pM; under `COc1ccc(-c2cc3ccc(OCCF)cc3s2)cn1` [Example 20, 2-(2-methoxypyridine-5-yl)-6-(2-fluoroethoxy)benzothiophene], 1320 pM. Consider `COc1nccc(-c2cc3ccc(OCCF)cc3s2)n1` [Example 34, 2-(2-methoxypyrimidine-4-yl)-6-(2-fluoroethoxy)benzothiophene], for which the Ki worked out at 470 pM.

Consider `CN(C)c1ccc(-c2cc3ccc(OCCF)cc3s2)nn1` [Example 49, 2-[3-(N,N-dimethylamino)pyridazine-6-yl]-6-(2-fluoroethoxy)benzothiophene], for which the Ki was 430 pM. In the case of `Nc1ccc(-c2cc3ccc(OCCF)cc3s2)cn1` [Example 21, 2-(2-aminopyridine-5-yl)-6-(2-fluoroethoxy)benzothiophene], the Ki amounted to 1110 pM. With `COc1cccc2sc(-c3ccc(N(C)C)cc3)cc12` [Example 14, 2-[4-(N,N-dimethylamino)phenyl]-4-methoxybenzothiophene], the inhibitory constant (Ki) is 770 pM. Regarding `COc1ccc2cc(-c3ccnc(OCCCF)n3)sc2c1` [Example 32, 2-[2-(3-fluoropropoxy)pyrimidine-4-yl]-6-methoxybenzothiophene], the Ki stood at 460 pM. On the same count and under the same terms, under `COc1nccc(-c2cc3ccc(OCCCF)cc3s2)n1` [Example 37, 2-(2-methoxypyrimidine-4-yl)-6-(3-fluoropropoxy)benzothiophene] stands 440 pM; under `COc1ccc2cc(-c3ccc(N(C)C)cc3)sc2c1` [Example 15, 2-[4-(N,N-dimethylamino)phenyl]-6-methoxybenzothiophene], 1580 pM. The same measure, in the same setting: under `Nc1ccc(-c2cc3ccc(OCCCF)cc3s2)cc1` [Example 10, 2-(4-aminophenyl)-6-(3-fluoropropoxy)benzothiophene] stands 640 pM; under `COc1ccc2cc(-c3ccnc(OCCF)c3)sc2c1` [Example 27, 2-[2-(2-fluoroethoxy)pyridine-4-yl]-6-methoxybenzothiophene], 830 pM; under `CN(C)c1ccnc(-c2cc3ccc(OCCF)cc3s2)n1` [Example 42, 2-[4-(N,N-dimethylamino)pyrimidine-2-yl]-6-(2-fluoroethoxy)benzothiophene], 250 pM. Take `COc1ccc2cc(-c3cccc([N+](=O)[O-])c3)sc2c1` [Example 2, 2-(3-nitrophenyl)-6-methoxybenzothiophene]: the Ki turned out to be 650 pM. Turning to `Nc1ccc(-c2cc3ccc(OCCCF)cc3s2)nn1` [Example 51, 2-(3-aminopyridazine-6-yl)-6-(3-fluoropropoxy)benzothiophene], the Ki came to 380 pM. On the same count and under the same terms, in the case of `CNc1ccc(-c2cc3ccc(OCCCF)cc3s2)cc1` [Example 13, 2-[4-(N-monomethylamino)phenyl]-6-(3-fluoropropoxy)benzothiophene] it was 270 pM; in that of `CNc1ccc(-c2cc3ccc(OCCCF)cc3s2)nn1` [Example 52, 2-[3-(N-monomethylamino)pyridazine-6-yl]-6-(3-fluoropropoxy)benzothiophene], 550 pM; in that of `CN(C)c1ccc(-c2cc3ccc(OCCCF)cc3s2)nn1` [Example 53, 2-[3-(N,N-dimethylamino)pyridazine-6-yl]-6-(3-fluoropropoxy)benzothiophene], 650 pM. The same measure, in the same setting: in the case of `COc1ccc2cc(-c3ccc(N)cc3)sc2c1` [Example 8, 2-(4-aminophenyl)-6-methoxybenzothiophene] it was 510 pM; in that of `COc1ccc(-c2cc3ccc(OCCCF)cc3s2)nn1` [Example 50, 2-(3-methoxypyridazine-6-yl)-6-(3-fluoropropoxy)benzothiophene], 180 pM; in that of `COc1ccc2cc(-c3ccc(OCCCF)nn3)sc2c1` [Example 45, 2-[3-(3-fluoropropoxy)pyridazine-6-yl]-6-methoxybenzothiophene], 1000 pM.

Regarding `COc1ccc2cc(-c3ccnc(OCCCF)c3)sc2c1` [Example 28, 2-[2-(3-fluoropropoxy)pyridine-4-yl]-6-methoxybenzothiophene], the Ki stood at 100 pM. With `COc1cc(-c2cc3ccc(OCCCF)cc3s2)ccn1` [Example 30, 2-(2-methoxypyridine-4-yl)-6-(3-fluoropropoxy)benzothiophene], the inhibition constant (Ki) is 790 pM.

System in the next series: not given
Test: not given
Settings: not given
One may read the melting point as the temperature, or range, at which the solid turns liquid. The molecule `O=[N+]([O-])c1ccc(-c2cc3ccc(O)cc3s2)cc1` [Example 4, 2-(4-nitrophenyl)-6-hydroxybenzothiophene] displayed a melting point of 265 to 265.2 °C. Molecule `CN(C)c1ccc(-c2cc3ccc(OCCCF)cc3s2)cc1` [Example 17, 2-[4-(N,N-dimethylamino)phenyl]-6-(3-fluoropropoxy)benzothiophene] came in with a melting point of 177.7 to 183 °C. In the case of `CNc1ccc(-c2cc3ccc(OCCF)cc3s2)cc1` [Example 12, 2-[4-(N-monomethylamino)phenyl]-6-(2-fluoroethoxy)benzothiophene], the melting point fell in the range of 156.9 to 159.7 °C.

`Nc1ccc(-c2cc3ccc(OCCCF)cc3s2)cc1` [Example 10, 2-(4-aminophenyl)-6-(3-fluoropropoxy)benzothiophene]: the melting point lay in the range of 119.6 to 123.2 °C.

Molecule `CNc1ccc(-c2cc3ccc(OCCCF)cc3s2)cc1` [Example 13, 2-[4-(N-monomethylamino)phenyl]-6-(3-fluoropropoxy)benzothiophene] showed a melting point of 121.4 to 123.1 °C.
